Measured values taken from patent US20180203025A1, “HDL THERAPY MARKERS” (Cerenis Therapeutics Holding SA, priority 2014, published 2018).

Columns and labels:
[1] = system: ABCG1 mRNA in mouse macrophages (J774); assay: ABCG1 gene expression (real-time PCR) in J774 macrophages; assay type: cell-based
Experimental: (§1) J774 were seeded on 6 well plates (300,000 cells/well) and loaded with oxidized-LDL without the use of ^3H-cholesterol. […] Gene expression was assayed using the protocols described in Sections 8.3.2 (RNA extraction); 8.3.4 (reverse transcription), and 8.3.5 (qPCR). ABCG1 gene expression was determined with Taqman probe Mm00437390.m1 according to the manufacturer's protocol. The reference gene used is HPRT1 (Taqman probe: Mm00446968.m1).
(§2) J774 were seeded on 6 well plates (300,000 cells/well) and loaded with oxidized-LDL. […] Gene expression was assayed using the protocols described in Sections 8.3.2 (RNA extraction); 8.3.4 (reverse transcription), and 8.3.5 (qPCR). SR-BI gene (Taqman probe Mm00450234.m1), ABCG1 (Taqman probe Mm00437390.m1), SREBP1 (Taqman probe Mm01138344.m1) and ABCA1 (Taqman probe Mm00442646.m1) expression were determined according to the manufacturer's protocol. The reference gene used is HPRT1 (Taqman probe: Mm00446968.m1).
as §2, with “(qPCR).” for “(qPCR). SR-BI gene (Taqman probe Mm00450234.m1),”, “Mm00437390.m1)” for “Mm00437390.m1), SREBP1 (Taqman probe Mm01138344.m1)”
as §2, with “(qPCR).” for “(qPCR). SR-BI gene (Taqman probe Mm00450234.m1),”, “Mm00437390.m1)” for “Mm00437390.m1), SREBP1 (Taqman probe Mm01138344.m1)”
(§3) J774 were seeded on 6 well plates (600,000 cells/well) in DMEM 10% FCS. […] Medium was removed and the macrophages were washed with DMEM. […] Gene expression was assayed using the protocols described in Sections 8.3.2 (RNA extraction); 8.3.4 (reverse transcription), and 8.3.5 (qPCR). ABCG1 (Taqman probe Mm00437390.m1), ABCA1 (Taqman probe Mm00442646.m1) and SR-BI (Taqman probe Mm00450234.m1) expression were determined according to the manufacturer's protocol. The reference gene used is HPRT1 (Taqman probe: Mm00446968.m1).
J774 were seeded on 6 well plates (300,000 cells/well) in DMEM 2.5% FCS. […] The next day, medium was replaced by fresh DMEM supplemented with or without ApoA-I (25 or 250 μg/mL) to initiate ApoA-I cholesterol efflux for 2 hours. The experiment was stopped at different time points: 1) J774 stopped before addition of ApoA-I, 2) J774+DMEM (passive efflux for 2 hours), 3) J774+ApoA-I (25 μg/mL) for 2 hours and 4) J774+ApoA-I (250 μg/mL) for 2 hours. The RNA was extracted with the RiboPure™ kit according to the manufacturer's protocol. Gene expression was assayed using the protocols described in Sections 8.3.2 (RNA extraction); 8.3.4 (reverse transcription), and 8.3.5 (qPCR). ABCA1 (Taqman probe Mm00442646.m1), ABCG1 (Taqman probe Mm00437390.m1), and SR-BI (Taqman probe Mm00450234.m1) expression were determined according to the manufacturer's protocol. The reference gene used is HPRT1 (Taqman probe: Mm00446968.m1).
This study examined the effect of HDL2 on ABCA1, ABCG1 and SR-BI mRNA levels in mouse macrophages. […] J774 were seeded on 6 well plates (300,000 cells/well) and loaded with oxidized-LDL. HDL2 (from 2.5 to 1000 μg/mL) were added for 6 hours on the macrophages and the RNA were extracted with the RiboPure™ kit according to the manufacturer's protocol. Gene expression was assayed using the protocols described in Sections 8.3.2 (RNA extraction); 8.3.4 (reverse transcription), and 8.3.5 (qPCR). ABCA1 (Taqman probe Mm00442646.m1), ABCG1 (Taqman probe Mm00437390.m1) and SR-BI (Taqman probe Mm00450234.m1) gene expression were determined according to the manufacturer protocols.

[2] = system: ABCA1 mRNA in mouse macrophages (J774); assay: ABCA1 gene expression (real-time PCR) in J774 macrophages; assay type: cell-based
Experimental: Use the same amount of cDNA for all samples (4 μl of 20 μL RT reaction on 0.5 or 1 μg RNA). For each sample (to be run in triplicate), sample the following into a nuclease-free 1.5-mL microcentrifuge tube (add the volume for 2 samples more to calculate the final volume of PCR reaction mix): 2× TaqMan® Gene Expression Master Mix: 10 μl; 20× TaqMan® Gene Expression Assay: 1 μl; Nuclease free H2O: 5 μl. Cap the tube and invert it several times to mix the reaction components. Centrifuge the tube briefly.
as §1, with “on 6×” for “on 6”, “(qPCR). ABCA1” for “(qPCR). ABCG1”, “probe Mm00442646.m1” for “probe Mm00437390.m1”
as §2
This study examined the kinetics of decreasing the mRNA level of ABCA1 in J774 macrophages. J774 were seeded on 6 well plates (300,000 cells/well) and loaded with oxidized-LDL. […] Gene expression was assayed using the protocols described in Sections 8.3.2 (RNA extraction); 8.3.4 (reverse transcription), and 8.3.5 (qPCR). ABCA1 (Taqman probe Mm00442646.m1) expression was determined according to the manufacturer's protocol. The reference gene used is HPRT1 (Taqman probe: Mm00446968.m1).
as §2, with “(qPCR).” for “(qPCR). SR-BI gene (Taqman probe Mm00450234.m1),”, “Mm00437390.m1)” for “Mm00437390.m1), SREBP1 (Taqman probe Mm01138344.m1)”
as §2, with “(qPCR).” for “(qPCR). SR-BI gene (Taqman probe Mm00450234.m1),”, “Mm00437390.m1)” for “Mm00437390.m1), SREBP1 (Taqman probe Mm01138344.m1)”
as §3
J774 were seeded on 6 well plates (300,000 cells/well) in DMEM 2.5% FCS. […] The next day, medium was replaced by fresh DMEM supplemented with or without ApoA-I (25 or 250 μg/mL) to initiate ApoA-I cholesterol efflux for 2 hours. The experiment was stopped at different time points: 1) J774 stopped before addition of ApoA-I, 2) J774+DMEM (passive efflux for 2 hours), 3) J774+ApoA-I (25 μg/mL) for 2 hours and 4) J774+ApoA-I (250 μg/mL) for 2 hours. The RNA was extracted with the RiboPure™ kit according to the manufacturer's protocol.

[3] = Study O, 0.03 to 30 mM, 6 hours
[4] = Study G, 250 μg/mL, 6 hours, without cAMP
[5] = Study G, overnight cAMP 300 μM, then 250 μg/mL 6 hours
[6] = Study I, 6 hours, presence or absence of cAMP
[7] = Study J, 24 hours treatment, 250 μg/mL
[8] = Study J, after 24 hours at 250 μg/mL

Compound | ABCG1 mRNA level [1, 3] | ABCA1 mRNA level [2, 3] | ABCG1 mRNA expression ([1]; Study B, oxidized-LDL loaded, 25, 250 and 1000 μg/mL, 6 hours) | ABCG1 mRNA level [1, 4] | ABCG1 mRNA level (RQ) [1, 5] | dose of maximum decrease of ABCG1 mRNA level ([1]; Study I, 6 hours) | doses at which decrease of ABCG1 mRNA level was observed [1, 6] [µg/mL] | ABCG1 mRNA level [1, 7] | time for ABCG1 mRNA level to return to baseline after removal [1, 8] [h] | ABCA1 mRNA expression ([2]; Study A, oxidized-LDL loaded, 25, 250 and 1000 μg/mL, 6 hours) | dose for diminishing half of the ABCA1 level ([2]; Study E, 6 hours) | time to decrease half of the ABCA1 mRNA level ([2]; Study F, 25 or 250 μg/mL) [h] | ABCA1 mRNA level [2, 4] | ABCA1 mRNA level (RQ) [2, 5] | effect of cAMP activation on CER-001 dose decreasing ABCA1 ([2]; Study I) | dose of maximum decrease of ABCA1 mRNA level ([2]; Study I, 6 hours) | doses at which decrease of ABCA1 mRNA level was observed [2, 6] [µg/mL] | ABCA1 mRNA level [2, 7] | time for ABCA1 mRNA level to return to baseline after removal [2, 8] | ABCA1 mRNA level ([2]; Study L, overnight pre-incubation at 250 μg/mL)
OC[C@H]1O[C@@H]2O[C@H]3[C@H](O)[C@@H](O)[C@@H](O[C@H]4[C@H](O)[C@@H](O)[C@@H](O[C@H]5[C@H](O)[C@@H](O)[C@@H](O[C@H]6[C@H](O)[C@@H](O)[C@@H](O[C@H]7[C@H](O)[C@@H](O)[C@@H](O[C@H]8[C@H](O)[C@@H](O)[C@@H](O[C@H]1[C@H](O)[C@H]2O)O[C@@H]8CO)O[C@@H]7CO)O[C@@H]6CO)O[C@@H]5CO)O[C@@H]4CO)O[C@@H]3CO [β-cyclodextrin, reference compound] | dose-dependent decrease | dose-dependent decrease |  |  |  |  |  |  |  |  |  |  |  |  |  |  |  |  |  | 
CER-001: engineered recombinant human apolipoprotein A-I HDL with sphingomyelin and DPPG; protein-to-phospholipid ratio 1:2.7, 97% Sph and 3% DPPG |  |  | decreased the ABCG1 mRNA at all the doses | decreased | 1 | around 15 μg/mL | 4 to 6 | decrease | 8 | decreased the ABCA1 mRNA at all the doses | around 7.5 μg/mL | 4 | decreased | 1 | did not change the sufficient dose of CER-001 | around 15 μg/mL | 4 to 6 | decrease | more than 8 hours | strongly decreased the ABCA1 mRNA level
